Laboratory results published in the NIST ThermoML archive (doi:10.1016/j.fluid.2016.02.035).

Assay: mn = molality of the nth substance listed, in mol/kg
Conditions: 101 kPa, Liquid; for speed of sound: Sing-around technique in a fixed-path interferometer; for mass density: Vibrating tube method

CCCC[N+](CCCC)(CCCC)CCCC.[Br-] [tetrabutylammonium bromide] + O
Conditions | mass density, 308.15 K [kg/m3] | mass density, 313.15 K [kg/m3] | mass density, 318.15 K [kg/m3] | speed of sound, 308.15 K [m/s] | speed of sound, 313.15 K [m/s] | speed of sound, 318.15 K [m/s]
m1 = 0.0015 | 994.069 | 992.252 | 990.25 | 1520.2 | 1529.2 | 1536.8
m1 = 0.0047 | 994.133 | 992.309 | 990.268 | 1520.9 | 1529.9 | 1537.4
m1 = 0.0061 | 994.141 | 992.322 | 990.285 | 1521.2 | 1530.2 | 1537.6
m1 = 0.013 | 994.299 | 992.471 | 990.457 | 1522.5 | 1531.4 | 1538.7
m1 = 0.0183 | 994.411 | 992.571 | 990.535 | 1523.7 | 1532.4 | 1539.7
m1 = 0.026 | 994.559 | 992.724 | 990.703 | 1525.1 | 1533.8 | 1540.9
m1 = 0.031 | 994.67 | 992.829 | 990.802 | 1526.1 | 1534.7 | 1541.8
m1 = 0.0492 | 995.05 | 993.186 | 991.142 | 1529.5 | 1537.8 | 1544.6
m1 = 0.0796 | 995.683 | 993.797 | 991.727 | 1535.4 | 1543.2 | 1549.6
m1 = 0.0997 | 996.092 | 994.191 | 992.105 | 1539.2 | 1546.6 | 1552.7
m1 = 0.1118 | 996.35 | 994.435 | 992.338 | 1541.5 | 1548.8 | 1554.6
m1 = 0.1291 | 996.709 | 994.777 | 992.665 | 1544.7 | 1551.7 | 1557.3
m1 = 0.1464 | 997.075 | 995.128 | 992.999 | 1547.8 | 1554.6 | 1559.9
m1 = 0.1626 | 997.408 | 995.446 | 993.303 | 1550.7 | 1557.2 | 1562.3
m1 = 0.1952 | 998.092 | 996.099 | 993.923 | 1556.3 | 1562.3 | 1567
m1 = 0.2309 | 998.837 | 996.807 | 994.602 | 1562.5 | 1567.9 | 1572
m1 = 0.2732 | 999.711 | 997.64 | 995.396 | 1569.5 | 1574.3 | 1577.8
m1 = 0.3073 | 1000.41 | 998.309 | 996.027 | 1574.9 | 1579.2 | 1582.3
m1 = 0.3449 | 1001.16 | 999.017 | 996.7 | 1580.8 | 1584.5 | 1587.1
m1 = 0.5437 | 1005.11 | 1002.75 | 1000.24 | 1608.6 | 1609.5 | 1609.2
m1 = 0.7712 | 1009.28 | 1006.68 | 1003.95 | 1634.4 | 1632 | 1629
